Reference: ChEMBL document CHEMBL4011644, “3-Hydroxy-N'-arylidenepropanehydrazonamides with Halo-Substituted Phenanthrene Scaffolds Cure P. berghei Infected Mice When Administered Perorally” (J Med Chem, 2017)
Active and inactive are the calls of the source. The calls are words filed in the database; no cut-off is given here.

Tests used:
Plasmodium falciparum [1] = experiment: Antiplasmodial activity against multidrug-resistant asexual blood stages of Plasmodium falciparum Dd2 after 72 hrs by HRP2-based ELISA; format: functional; conditions: Dd2, 72 h
Plasmodium berghei [2] = experiment: Antiplasmodial activity against Plasmodium berghei infected in NMRI mouse assessed as parasite-free mouse at 50 mg/kg, po administered at 4, 24, 48, 72 hrs post infection measured on day 30 by Peter's test; format: functional, organism-based
HepG2 = experiment: Cytotoxicity against human HepG2 cells by CellTiterGlo assay; format: cell-based
[3] = Selectivity index, ratio of IC50 for human HepG2 cells to IC50 for chloroquine-sensitive asexual blood stages of Plasmodium falciparum 3D7; format: toxicity; conditions: read-out: Ratio IC50
Plasmodium falciparum [4] = experiment: Antiplasmodial activity against chloroquine-sensitive asexual blood stages of Plasmodium falciparum 3D7 after 72 hrs by HRP2-based ELISA; format: functional; conditions: 3D7, 72 h
Plasmodium berghei [5] = experiment: Antiplasmodial activity against Plasmodium berghei infected in NMRI mouse assessed as mean survival time at 50 mg/kg, ip administered at 4, 24, 48, 72 hrs post infection by Peter's test (reference value: 6 to 7 day); format: functional
Plasmodium berghei [6] = experiment: Antiplasmodial activity against Plasmodium berghei infected in NMRI mouse assessed as mean survival time at 50 mg/kg, po administered at 4, 24, 48, 72 hrs post infection by Peter's test (reference value: 6 to 7 day); format: functional
Plasmodium berghei [7] = experiment: Antiplasmodial activity against Plasmodium berghei infected in NMRI mouse assessed as reduction in parasitemia at 50 mg/kg, ip administered at 4, 24, 48, 72 hrs post infection measured on day 4 post infection by Peter's test relative to control; format: functional; parameters: scale not given: the % may be the effect or the level left
Mus musculus [8] = experiment: Toxicity in NMRI mouse infected with Plasmodium berghei assessed as diarrhea at 50 mg/kg, ip administered at 4, 24, 48, 72 hrs post infection; format: organism-based; conditions: in vivo
Mus musculus [9] = experiment: Toxicity in NMRI mouse infected with Plasmodium berghei assessed as reduction in physical activity at 50 mg/kg, ip administered at 4, 24, 48, 72 hrs post infection; format: organism-based; conditions: in vivo
Plasmodium berghei [10] = experiment: Antiplasmodial activity against Plasmodium berghei infected in NMRI mouse assessed as reduction in parasitemia at 50 mg/kg, po administered at 4, 24, 48, 72 hrs post infection measured on day 4 post infection by Peter's test relative to control; format: functional; parameters: scale not given: the % may be the effect or the level left
Plasmodium berghei [11] = experiment: Antiplasmodial activity against Plasmodium berghei infected in NMRI mouse assessed as parasite-free mouse at 50 mg/kg, ip administered at 4, 24, 48, 72 hrs post infection measured on day 30 by Peter's test; format: functional, organism-based

Structure (SMILES) | IC50 (Plasmodium falciparum [1]) [µM] | Activity (Plasmodium berghei [2]) | IC50 (HepG2) [µM] | selectivity ratio [3] | IC50 (Plasmodium falciparum [4]) [µM] | MST (Plasmodium berghei [5]) [days] | MST (Plasmodium berghei [6]) [days] | Activity (Plasmodium berghei [7]) [%] | Activity (Mus musculus [8]) | Activity (Mus musculus [9]) | Activity (Plasmodium berghei [10]) [%] | Activity (Plasmodium berghei [11])
N/C(CC(O)c1cc2ccccc2c2ccccc12)=N\N=C1CCCCCC1 (stereo not drawn) | 0.14 | inactive | 25.4 | 139 | 0.18 | – | – | – | – | – | – | –
CCN(CC)Cc1cc(/C=N/N=C(\N)CC(O)c2cc3ccccc3c3ccccc23)ccc1O (stereo not drawn) | 0.0034 | inactive | 14.3 | 14700 | 0.00097 | 30 | 28.2 | 99.7 | Non-Toxic | Non-Toxic | 99.9 | –
CCN(CC)Cc1cccc(/C=N/N=C(\N)CC(O)c2cc3ccccc3c3ccccc23)c1 (stereo not drawn) | 0.036 | inactive | 16.6 | 664 | 0.025 | – | – | – | – | – | – | –
CN(C)Cc1cc(/C=N/N=C(\N)CC(O)c2cc3ccccc3c3ccccc23)ccc1O (stereo not drawn) | 0.00097 | inactive | 16.7 | 6680 | 0.0025 | 22 | 24.7 | 99.8 | Non-Toxic | Non-Toxic | 99.8 | inactive
N/C(CC(O)c1cc2ccccc2c2ccccc12)=N\N=C\C1CCCCC1 (stereo not drawn) | 0.72 | – | 27.4 | 83 | 0.33 | – | – | – | – | – | – | –
N/C(CC(O)c1cc2ccccc2c2ccccc12)=N\N=C\c1ccc(F)cc1 (stereo not drawn) | 0.00114 | – | > 10 | > 1040 | – | – | – | – | – | – | – | –
CCCCC(CCCC)=N/N=C(\N)CC(O)c1cc2ccccc2c2ccccc12 (stereo not drawn) | 0.012 | inactive | 8.6 | 1040 | 0.0083 | 7 | – | 64.8 | Non-Toxic | Non-Toxic | <40 | inactive
CN1CCN(Cc2cc(/C=N/N=C(\N)CC(O)c3cc4ccccc4c4ccccc34)ccc2O)CC1 (stereo not drawn) | 0.0092 | inactive | 8.4 | 1620 | 0.0052 | 18 | 16 | 97.6 | Non-Toxic | Non-Toxic | 98 | inactive
CCN(CC)Cc1cc(/C=N/N=C(\N)CC(O)c2cc3ccccc3c3ccccc23)cc(CN(CC)CC)c1O (stereo not drawn) | 0.0033 | inactive | 14.3 | 9530 | 0.0015 | 11 | 11 | 99.8 | Toxic | Toxic | 96.7 | inactive
CCCCC(/C=N/N=C(\N)CC(O)c1cc2ccccc2c2ccccc12)CCCC (stereo not drawn) | 0.092 | – | 7.6 | 127 | 0.06 | – | – | – | – | – | – | –
N/C(CC(O)c1cc2ccccc2c2ccccc12)=N\N=C\c1ccc(O)c(CN2CCOCC2)c1 (stereo not drawn) | 0.044 | inactive | 3.7 | 128 | 0.029 | 14 | 9.7 | 91.3 | Non-Toxic | Non-Toxic | 89.7 | inactive
N/C(CC(O)c1cc2ccccc2c2ccccc12)=N\N=C\c1ccc(O)c(CN2CCCCC2)c1 (stereo not drawn) | 0.0054 | inactive | 8.4 | 2900 | 0.0029 | 16.7 | 10.3 | 98.7 | Non-Toxic | Non-Toxic | 99 | inactive
